Test results from US7208514B2, “Tumorigenesis inhibitor” (Mitsubishi Pharma Corporation, priority 2003, dated 2007).

Legend:
[1] = test system: azoxymethane-induced aberrant crypt foci in colon; assay: Suppressive effect on the formation of azoxymethane-induced aberrant crypt foci in colon; assay type: in vivo, male ICR mice; conditions: for number of colonic ACF / body weight: mean ± standard error; for number of colonic ACF: control 10.3 ± 1.7; for body weight: mixed diet for 5 weeks, azoxymethane-treated mice
[2] = test system: lipid peroxide production in homogenate of the brain; assay: Examination of antioxidative effect (thiobarbituric acid reaction product, lipid peroxide, in brain homogenate); assay type: biochemical, Wistar rat
Experimental: The absorbance of a thiobarbituric acid reaction product (lipid peroxide) generated 1 hr after the incubation was measured.

[3] = test system: dimethylhydrazine-induced colonic ACF and colonic mucosal cell growth; assay: Suppressive effect on the formation of dimethylhydrazine-induced colonic ACF and cancer cell growth; assay type: in vivo, male ICR mice; conditions: for number of colonic ACF: mean ± standard error, control 30.7 ± 3.3
[4] = literature statement; cited from earlier work
[5] = Y-700 5-20 mg/kg mixed diet, 5 weeks
[6] = Y-700 10 and 20 mg/kg mixed diet, 10 weeks
[7] = Y-700 mixed diet 10 and 20 mg/kg diet

CC(C)(C)COc1ccc(-n2cc(C(=O)O)cn2)cc1C#N [Y-700, 1-(3-cyano-4-neopentyloxyphenyl)pyrazole-4-carboxylic acid]
number of colonic ACF ([1]; Y-700 5 mg/kg diet, 5 weeks): 7.0 ± 1.3 n/mice
body weight ([1]; Y-700 5 mg/kg diet): 40.4 ± 1.2 g
number of colonic ACF ([1]; Y-700 10 mg/kg diet, 5 weeks): 7.0 ± 0.7 n/mice
body weight ([1]; Y-700 10 mg/kg diet): 39.9 ± 1.4 g
number of colonic ACF ([1]; Y-700 15 mg/kg diet, 5 weeks): 6.5 ± 0.6 n/mice
body weight ([1]; Y-700 15 mg/kg diet): 40.3 ± 0.9 g
number of colonic ACF ([1]; Y-700 20 mg/kg diet, 5 weeks): 5.5 ± 0.7 n/mice
body weight ([1]; Y-700 20 mg/kg diet): 39.9 ± 1.0 g
body weight change attributable to Y-700 administration [1, 5]: nor was observed body weight change
feed intake [1, 5]: No change
number of colonic ACF, trend ([1]; Y-700 mixed diet 5-20 mg/kg diet): dose-dependent decreases
effect on the increase in the number of colonic ACF induced by azoxymethane ([1]; conclusion in words): suppressive effect
change in production amount of lipid peroxide attributable to addition of Y-700 ([2]; 0.5-20 μg/ml): No change
antioxidative effect ([2]; conclusion in words): no antioxidative effect
number of colonic ACF ([3]; Y-700 10 mg/kg diet, 10 weeks): 20.7 ± 2.0 n/mouse
number of colonic ACF ([3]; Y-700 20 mg/kg diet, 10 weeks): 22.9 ± 1.4 n/mouse
body weight change attributable to Y-700 administration [3, 6]: nor was observed body weight change
feed intake [3, 6]: No change
cell growth rate of the surrounding areas, change in words [3, 7]: significant decreases
number of colonic ACF, change in words [3, 7]: significant decreases
radical removing (scavenging) effect [4]: free of radical scavenging effect

Oc1ncnc2[nH]ncc12 [allopurinol, reference compound]
radical removing (scavenging) effect [4]: shows a radical removing (scavenging) effect
